Assay results reported in patent publication US20120128732A1, “COMBINATIONS AND MODES OF ADMINISTRATION OF THERAPEUTIC AGENTS AND COMBINATION THERAPY” (priority 2008, published 2012).

Columns and labels:
[1] = tested on: MDA-MB-231 breast tumor xenografts; test: Survival signals in MDA-MB-231 breast tumor xenografts after Abraxane (Western blotting, immunohistochemistry); format: in vivo, mice
Experimental: […] Tumor lysates were analyzed for VEGF expression and pro-survival signals (p42 & p44 kinase, p-NF-κB p50, p-Akt, bcl-2) using Western blotting. Expression of bcl-2 was further analyzed by immunohistochemistry.

[2] = tested on: metastatic or advanced renal cell carcinoma; conditions: progressing after prior therapy with a VEGF receptor inhibitor; cited from earlier work
[3] = tested on: second or third-line metastatic colon cancer; conditions: perifosine in combination with capecitabine, patients with advanced; cited from earlier work
[4] = tested on: imatinib-resistant gastrointestinal stromal tumor; conditions: addition of perifosine to imatinib, patients; cited from earlier work

## CC(=O)O[C@H]1C(=O)[C@@]2(C)[C@H]([C@H](OC(=O)c3ccccc3)[C@]3(O)C[C@H](OC(=O)[C@H](O)[C@@H](NC(=O)c4ccccc4)c4ccccc4)C(C)=C1C3(C)C)[C@]1(OC(C)=O)CO[C@@H]1C[C@@H]2O [paclitaxel]
[1]; surviving MDA-MB-231 tumors, SCID mice, Abraxane 10 to 30 mg/kg IV qdx5, Western blotting and immunohistochemistry
  bcl-2 expression in tumors: Significant increases
[1]; tumors extracted immediately after therapy, Western blotting and immunohistochemistry
  inflammatory cytokines in tumors: Significant increases

## CCCCCCCCCCCCCCCCCCOP(=O)([O-])OC1CC[N+](C)(C)CC1 [perifosine]
[2]
  clinical outcome in renal cell carcinoma: clinical benefits
[3]
  median time to progression over capecitabine alone: more than doubled
[4]
  activity in imatinib-refractory gastrointestinal stromal tumor: minimal activity
